The results in this text go back to patent US20230382924A1, “MODULATORS OF CYSTIC FIBROSIS TRANSMEMBRANE CONDUCTANCE REGULATOR” (VERTEX PHARMACEUTICALS INCORPORATED, priority 2020, published 2023).

Where two headings read alike, the source gives them in different places. A value given as a limit tells only on which side of the number the result lay.

For this assay, the target named is CFTR (Homo sapiens, UniProt P13569). Briefly: Membrane Potential Dye, Enteroid Assay A. Conditions: for EC50: read-out: Ent. A EC50. The assay is classed as cell-based. A digest of the protocol:
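Signal is reported as % Activity relative to a triple CFTR modulator control (3 μM + 3 μM + 300 nM acute). Read-out: membrane potential fluorescence (20 μM methyl oxonol) monitored for 15 min after chloride-free stimulation. Dye loading took 25 min at room temperature in Bath 1 buffer containing CaCC blockers.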

CFTR, sequence (P13569 with tags, fused parts or gaps DEL508-508): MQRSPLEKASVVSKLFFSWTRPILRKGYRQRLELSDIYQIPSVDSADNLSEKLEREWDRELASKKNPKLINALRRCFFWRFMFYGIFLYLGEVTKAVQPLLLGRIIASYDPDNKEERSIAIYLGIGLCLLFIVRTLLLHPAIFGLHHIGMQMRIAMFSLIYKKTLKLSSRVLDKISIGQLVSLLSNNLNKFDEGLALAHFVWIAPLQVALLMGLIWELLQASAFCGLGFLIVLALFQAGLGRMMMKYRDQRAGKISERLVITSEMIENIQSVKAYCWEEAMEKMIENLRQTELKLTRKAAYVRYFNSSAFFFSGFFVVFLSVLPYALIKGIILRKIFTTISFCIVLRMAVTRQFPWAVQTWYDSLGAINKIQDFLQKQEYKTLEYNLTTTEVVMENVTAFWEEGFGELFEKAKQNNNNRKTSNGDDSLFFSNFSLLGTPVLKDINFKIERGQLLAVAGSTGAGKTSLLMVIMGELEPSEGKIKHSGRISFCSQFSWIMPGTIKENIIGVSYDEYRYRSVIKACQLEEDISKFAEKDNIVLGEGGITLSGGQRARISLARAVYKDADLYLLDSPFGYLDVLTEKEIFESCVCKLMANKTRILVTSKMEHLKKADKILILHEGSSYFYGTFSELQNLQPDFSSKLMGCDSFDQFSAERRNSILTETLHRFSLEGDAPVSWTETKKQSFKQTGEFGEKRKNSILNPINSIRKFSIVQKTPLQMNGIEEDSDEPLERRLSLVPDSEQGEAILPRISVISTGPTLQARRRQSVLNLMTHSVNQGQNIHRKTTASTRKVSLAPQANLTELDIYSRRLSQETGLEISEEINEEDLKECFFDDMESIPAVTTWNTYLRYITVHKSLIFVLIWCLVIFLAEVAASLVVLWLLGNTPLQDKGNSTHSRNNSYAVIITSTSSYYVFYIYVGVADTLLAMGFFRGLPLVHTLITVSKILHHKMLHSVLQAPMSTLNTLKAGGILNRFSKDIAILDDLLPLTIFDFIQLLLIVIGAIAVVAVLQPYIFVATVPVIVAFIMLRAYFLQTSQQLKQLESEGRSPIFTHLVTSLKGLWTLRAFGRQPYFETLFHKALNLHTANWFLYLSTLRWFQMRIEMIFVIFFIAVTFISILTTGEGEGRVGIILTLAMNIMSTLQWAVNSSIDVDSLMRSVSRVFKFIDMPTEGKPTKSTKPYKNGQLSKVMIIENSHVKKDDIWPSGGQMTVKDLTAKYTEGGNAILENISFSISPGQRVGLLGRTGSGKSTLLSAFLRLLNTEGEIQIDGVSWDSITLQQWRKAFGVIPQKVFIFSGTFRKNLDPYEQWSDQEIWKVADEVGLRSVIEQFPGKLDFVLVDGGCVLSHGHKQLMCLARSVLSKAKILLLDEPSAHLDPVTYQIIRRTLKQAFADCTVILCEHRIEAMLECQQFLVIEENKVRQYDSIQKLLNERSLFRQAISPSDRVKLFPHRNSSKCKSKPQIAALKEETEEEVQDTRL

The term EC50 denotes the concentration that produces a half-maximal response. Turning to `CC(C)C[C@@H]1COc2cc(-c3ccccc3-c3ccccc3)nc(n2)NS(=O)(=O)c2cccc(c2)C(=O)N1` [Compound 101, (11R)-11-Isobutyl-2,2-dioxo-6-(2-phenylphenyl)-9-oxa-2λ^6-thia-3,5,12,19-tetrazatricyclo[12.3.1.14,8]nonadeca-1(18),4,6,8(19),14,16-hexaen-13-one], under “Table 9”, the “Ent. A Max Activity” value is “+++ (+++ is >60%)” and the EC50 is under 1000 nM.
For the molecule `CC(C)C[C@@H]1COc2cc(-c3ccnn3CC(C)C)nc(n2)NS(=O)(=O)c2cccc(c2)C(=O)N1` [Compound 102, (11R)-11-(2-Methylpropyl)-6-[1-(2-methylpropyl)-1H-pyrazol-5-yl]-9-oxa-2λ^6-thia-3,5,12,19-tetraazatricyclo[12.3.1.14,8]nonadeca-1(17),4(19),5,7,14(18),15-hexaene-2,2,13-trione], under “Enteroid Assay A”, the “Ent. A Max Activity” value was “++ (++ is 30-60%)” and the EC50 lay in the range of 3000 to 30000 nM.
As to `CC(C)C[C@@H]1COc2cc(-c3ccccc3OC(F)(F)F)nc(n2)NS(=O)(=O)c2cccc(c2)C(=O)N1` [Compound 103, (11R)-11-(2-Methylpropyl)-6-[2-(trifluoromethoxy)phenyl]-9-oxa-2λ^6-thia-3,5,12,19-tetraazatricyclo[12.3.1.14,8]nonadeca-1(17),4(19),5,7,14(18),15-hexaene-2,2,13-trione], for the setting “Enteroid Assay A”, the “Ent. A Max Activity” value was “+++ (+++ is >600%)” and the half-maximal effective concentration (EC50) was under 1000 nM.
For the molecule `CC(C)CCc1ccccc1-c1cc2nc(n1)NS(=O)(=O)c1cccc(c1)C(=O)N[C@H](CC(C)C)CO2` [Compound 104, (11R)-6-[2-(3-Methylbutyl)phenyl]-11-(2-methylpropyl)-9-oxa-2λ^6-thia-3,5,12,19-tetraazatricyclo[12.3.1.14,8]nonadeca-1(17),4,6,8(19),14(18),15-hexaene-2,2,13-trione], where the note is “Enteroid Assay A”, the “Ent. A Max Activity” value is “++ (++ is 30-60%)” and the EC50 is under 1000 nM.
The matching figures for `CC(C)C[C@@H]1COc2cc(-c3ccccc3C3CC3)nc(n2)NS(=O)(=O)c2cccc(c2)C(=O)N1` [Compound 105, (11R)-6-(2-cyclopropylphenyl)-11-(2-methylpropyl)-9-oxa-2λ^6-thia-3,5,12,19-tetraazatricyclo[12.3.1.14,8]nonadeca-1(17),4(19),5,7,14(18),15-hexaene-2,2,13-trione]: “+++ (+++ is >600%)” and under 1000 nM.
On to `Cc1cccnc1-c1cc2nc(n1)NS(=O)(=O)c1cccc(c1)C(=O)N[C@H](CC(C)C)CO2` [Compound 108, (11R)-11-Isobutyl-6-(3-methyl-2-pyridyl)-2,2-dioxo-9-oxa-2λ^6-thia-3,5,12,19-tetrazatricyclo[12.3.1.14,8]nonadeca-1(18),4(19),5,7,14,16-hexaen-13-one], for which, where the note is “Table 9”, the “Ent. A Max Activity” value is “++ (++ is 30-60%)” and the EC50 was 3000 to 30000 nM.
For the molecule `Cc1cc(C(F)(F)F)n(-c2cc3nc(n2)NS(=O)(=O)c2cccc(c2)C(=O)N[C@H](CC(C)C)CO3)n1` [Compound 109, (11R)-6-[3-methyl-5-(trifluoromethyl)-1H-pyrazol-1-yl]-11-(2-methylpropyl)-9-oxa-2λ^6-thia-3,5,12,19-tetraazatricyclo[12.3.1.14,8]nonadeca-1(17),4,6,8(19),14(18),15-hexaene-2,2,13-trione], under “Table 8”, the “Ent. A Max Activity” value is “+ (+ is <30%)” and the EC50 was under 1000 nM.
On to `Cc1cccc(C)c1-c1cc2nc(n1)NS(=O)(=O)c1cccc(c1)C(=O)N[C@H](C(C)C)CO2` [Compound 112, (11R)-6-(2,6-Dimethylphenyl)-11-(propan-2-yl)-9-oxa-2λ^6-thia-3,5,12,19-tetraazatricyclo[12.3.1.14,8]nonadeca-1(17),4,6,8(19),14(18),15-hexaene-2,2,13-trione], for which, for the setting “Enteroid Assay A”, the “Ent. A Max Activity” value was “+++ (+++ is >600%)” and the half-maximal effective concentration (EC50) is under 1000 nM.
As for `Cc1cccc(C)c1-c1cc2nc(n1)NS(=O)(=O)c1cccc(c1)C(=O)NCC(c1ccc3c(c1)OCCO3)O2` (stereo not drawn) [Compound 116], where the note is “Table 8”, the “Ent. A Max Activity” value was “+++ (+++ is >60%)” and the EC50 is under 1000 nM.
For `Cc1cccc(C)c1-c1cc2nc(n1)NS(=O)(=O)c1cccc(c1)C(=O)NCC(c1ccc3c(c1)C(C)(C)CCC3(C)C)O2` (stereo not drawn) [Compound 117], in that order: “+++ (+++ is >60%)” and under 1000 nM.
With `Cc1cc(C2CNC(=O)c3cccc(c3)S(=O)(=O)Nc3nc(cc(-c4c(C)cccc4C)n3)O2)cc2c1OC(C)(C)C2` (stereo not drawn) [Compound 119], the “Ent. A Max Activity” value (Table 8) is given as “+ (+ is <30%)”.
The same measure, in the same setting: the value for `COCCOc1ccc(C2CNC(=O)c3cccc(c3)S(=O)(=O)Nc3nc(cc(-c4c(C)cccc4C)n3)O2)cc1` (stereo not drawn) [Compound 120] was “+ (+ is <30%)”.
For `Cc1cccc(C)c1-c1cc2nc(n1)NS(=O)(=O)c1cccc(c1)C(=O)NCC(c1ccc(CC[Si](C)(C)C)cc1)O2` (stereo not drawn) [Compound 127], the EC50 (Table 9) was under 1000 nM.
On the same count and under the same terms, the value for `Cc1cccc(C)c1-c1cc2nc(n1)NS(=O)(=O)c1cccc(c1)C(=O)NCC(c1ccc(C[Si](C)(C)C)cc1)O2` (stereo not drawn) [Compound 128] was under 1000 nM.
`Cc1cccc(C)c1-c1cc2nc(n1)NS(=O)(=O)c1cccc(c1)C(=O)N[C@@H](CC(C)(C)C)[C@H](C)O2` [Compound 130]: under “Table 9”, the “Ent. A Max Activity” value is “+++ (+++ is >60%)” and the EC50 was under 1000 nM.
For `Cc1cccc(C)c1-c1cc2nc(n1)NS(=O)(=O)c1cccc(c1)C(=O)N[C@H](CC1CCCCC1)[C@@H](C1CC1)O2` [Compound 131], under “Table 9”, the “Ent. A Max Activity” value was “+++ (+++ is >60%)” and the EC50 is under 1000 nM.
In the case of `CC[C@H]1NC(=O)c2cccc(c2)S(=O)(=O)Nc2nc(cc(-c3c(C)cccc3C)n2)O[C@H]1c1ccc(C(C)(C)C)cc1` [Compound 132], for the setting “Table 9”, the “Ent. A Max Activity” value is “+++ (+++ is >60%)” and the EC50 was under 1000 nM.
Take `CC[C@H]1NC(=O)c2cccc(c2)S(=O)(=O)Nc2nc(cc(-c3c(C)cccc3C)n2)O[C@@H]1c1ccc(C(C)(C)C)cc1` [Compound 133]: where the note is “Table 9”, the “Ent. A Max Activity” value was “+++ (+++ is >60%)” and the EC50 was under 1000 nM.
On to `Cc1cccc(C)c1-c1cc2nc(n1)NS(=O)(=O)c1cccc(c1)C(=O)N[C@H](C)[C@H](c1ccc(C(C)(C)C)cc1)O2` [Compound 134], for which, where the note is “Table 8”, the “Ent. A Max Activity” value is “+ (+ is <30%)” and the EC50 is under 1000 nM.
In the case of `Cc1cccc(C)c1-c1cc2nc(n1)NS(=O)(=O)c1cc(cc(-c3ccc(C(C)(C)C)cc3)c1)C(=O)N[C@H](CC(C)C)CO2` [Compound 135], the “Ent. A Max Activity” value (Table 8) was “+ (+ is <30%)”.
The same measure, in the same setting: next, `Cc1cccc(C)c1-c1cc2nc(n1)NS(=O)(=O)c1cc(cc(C3CC3)c1)C(=O)N[C@H](CC(C)C)CO2` [Compound 136]: “+ (+ is <30%)”.
For the molecule `Cc1cccc(C)c1-c1cc2nc(n1)NS(=O)(=O)c1cc(cc(C3CCCCC3)c1)C(=O)N[C@H](CC(C)C)CO2` [Compound 137], where the note is “Table 8”, the “Ent. A Max Activity” value is “+ (+ is <30%)”.
Same read-out and setting: next, `Cc1cccc(C)c1-c1cc2nc(n1)NS(=O)(=O)c1cc(cc(C3CCOCC3)c1)C(=O)N[C@H](CC(C)C)CO2` [Compound 138]: “+ (+ is <30%)”; `Cc1cccc(C)c1-c1cc2nc(n1)NS(=O)(=O)c1cc(cc(C3=CCCCC3)c1)C(=O)N[C@H](CC(C)C)CO2` [Compound 139]: “+ (+ is <30%)”.
Take `Cc1cccc(C)c1-c1cc2nc(n1)NS(=O)(=O)c1cccc(c1)C(=O)N[C@H](CC1CCCCC1)[C@@H](C)O2` [Compound 144]: under “Table 8”, the “Ent. A Max Activity” value is listed as “+++ (+++ is >60%)” and the EC50 is under 1000 nM.
Consider `Cc1cccc(C)c1-c1cc2nc(n1)NS(=O)(=O)c1cccc(c1)C(=O)NC[C@@H](c1ccc(CCC3(C(F)(F)F)CC3)cc1)O2` [Compound 145], for which, for the setting “Table 9”, the “Ent. A Max Activity” value is given as “++ (++ is 30-60%)” and the EC50 is under 1000 nM.
The matching figures for `Cc1cccc(C)c1-c1cc2nc(n1)NS(=O)(=O)c1cccc(c1)C(=O)NCC(c1ccc(CC3(C(F)(F)F)CC3)cc1)O2` (stereo not drawn) [Compound 147]: “+++ (+++ is >60%)” and under 1000 nM.
In the case of `Cc1cccc(C)c1-c1cc2nc(n1)NS(=O)(=O)c1cccc(c1)C(=O)NCC(c1ccc(C(C)(C)C#N)cc1)O2` (stereo not drawn) [Compound 152], the “Ent. A Max Activity” value (Table 8) is “+ (+ is <30%)”.
For the molecule `CCC(C)(C)c1ccc(C2CNC(=O)c3cccc(c3)S(=O)(=O)Nc3nc(cc(-c4c(C)cccc4C)n3)O2)cc1` (stereo not drawn) [Compound 153], under “Table 8”, the “Ent. A Max Activity” value is recorded as “+ (+ is <30%)” and the EC50 was 3000 to 30000 nM.
On to `Cc1cccc(C)c1-c1cc2nc(n1)NS(=O)(=O)c1cccc(c1)C(=O)N[C@H](CC1CCCCC1)[C@@H](c1ccc(C(C)(C)C)cc1)O2` [Compound 154], for which, where the note is “Table 8”, the “Ent. A Max Activity” value is listed as “+++ (+++ is >60%)” and the EC50 is under 1000 nM.
For `Cc1cc(C(C)(C)C)ccc1C1CNC(=O)c2cccc(c2)S(=O)(=O)Nc2nc(cc(-c3c(C)cccc3C)n2)O1` (stereo not drawn) [Compound 157], in that order: “+++ (+++ is >60%)” and under 1000 nM.
For `COc1cccc(C2CNC(=O)c3cccc(c3)S(=O)(=O)Nc3nc(cc(-c4c(C)cccc4C)n3)O2)c1` (stereo not drawn) [Compound 158], in that order: “+++ (+++ is >60%)” and under 1000 nM.
Turning to `Cc1ccccc1[C@@H]1Oc2cc(-c3c(C)cccc3C)nc(n2)NS(=O)(=O)c2cccc(c2)C(=O)N[C@@H]1CC(C)C` [Compound 162], for the setting “Enteroid Assay A”, the EC50 is under 1000 nM.
Take `COc1cc(Cc2cccc(C)c2-c2cc3nc(n2)NS(=O)(=O)c2cccc(c2)C(=O)N[C@H](CC(C)C)CO3)cc(OC)c1` [Compound 167]: for the setting “Table 9”, the “Ent. A Max Activity” value is given as “+++ (+++ is >60%)” and the EC50 is under 1000 nM.
For `Cc1cccc(Cc2ccccc2)c1-c1cc2nc(n1)NS(=O)(=O)c1cccc(c1)C(=O)N[C@H](CC(C)C)CO2` [Compound 168], in that order: “+++ (+++ is >60%)” and under 1000 nM.
With `Cc1cccc(C)c1-c1cc2nc(n1)NS(=O)(=O)c1cccc(c1)C(=O)NC(C(F)(F)F)CO2` (stereo not drawn) [Compound 171], the “Ent. A Max Activity” value (Table 8) is given as “+ (+ is <30%)”.
